In article PMC3335202 (Journal of Medicinal Chemistry, 2012):

Experiments:
[1] = Chemical stability in phosphate buffer; format: physicochemical; conditions: 10 μM, phosphate buffer pH 7.4, up to 30 hours, HPLC
[2] = system: Human embryonic stem cell H9 lines carrying MYH6-mCherry reporters; experiment: hESC cardiogenesis assay; format: cell-based; conditions: hESCs, dose-response behaviour
[3] = system: β-catenin-dependent canonical Wnt pathway; experiment: Wnt inhibition assay; format: cell-based, human; conditions: Homo sapiens, HEK-293T, Wnt inhibition, HEK293T cells

| SMILES | degradation in phosphate buffer [1] | induction of cardiogenesis (class in words) [2] | IC50 [3] [nM] |
| --- | --- | --- | --- |
| CC(=O)c1ccccc1NC(=O)[C@H]1CC[C@H](N2C(=O)[C@@H]3[C@@H]4CC[C@@H](C4)[C@@H]3C2=O)CC1 [Compound 28, 4-(cis-endo-1,3-Dioxooctahydro-2H-4,7-methanoisoindol-2-yl)-N-(2-acetylphenyl)-trans-cyclohexyl carboxamide] | No degradation was observed | potent stimulators of cardiogenesis | – |
| O=C1[C@@H]2[C@@H]3CC[C@@H](C3)[C@@H]2C(=O)N1[C@H]1CC[C@H](C(=O)Nc2cccnc2)CC1 [Compound 32, 4-(cis-endo-(1,3-Dioxooctahydro-2H-4,7-methanoisoindol-2-yl))-N-(pyridin-3-yl)-trans-cyclohexyl carboxamide] | No degradation was observed | functionally inactive as inducers of cardiogenesis | ~100 |
